Converted amounts (≈) assume the structure as drawn.
How the values were obtained:
[1] = target: S. aureus RNA polymerase core enzyme + S. aureus σA (Staphylococcus aureus (strain NCTC 8325 / PS 47), UniProt P47768+Q2G0N5); experiment: Fluorescence-detected assay of inhibition of Staphylococcus aureus RNA polymerase; type: biochemical; details: T4 N25 promoter DNA, RiboGreen fluorescence, read-out: RNAP-inhibitory activity S. aureus RNAP IC50
Procedure: (§1) Fluorescence-detected RNA polymerase assays with E. coli RNA polymerase were performed by a modification of the procedure of Kuhlman et al., 2004 [Kuhlman, P., Duff, H. & Galant, A. (2004) A fluorescence-based assay for multisubunit DNA-dependent RNA polymerases. Anal. Biochem. 324, 183-190]. Reaction mixtures contained […]: […] test salt, 75 nM E. coli RNA polymerase σ^70 holoenzyme, 20 nM 384 bp DNA fragment containing the bacteriophage T4 N25 promoter, 100 μM ATP, 100 μM GTP, 100 μM UTP, 100 μM CTP, 50 mM Tris-HCl, pH 8.0, 100 mM KCl, 10 mM MgCl2, 1 mM DTT, 10 μg/ml bovine serum albumin, and 5.5% glycerol. Reaction components other than DNA and NTPs were pre-incubated for 10 min at 37° C. Reactions were carried out by addition of DNA and incubation for 5 min at 37° C., followed by addition of NTPs and incubation for 60 min at 37° C. DNA was removed by addition of 1 μl 5 mM CaCl2 and 2 U DNaseI (Ambion, Inc.), followed by incubation for 90 min at 37° C. RNA was quantified by addition of 100 μI RiboGreen RNA Quantitation Reagent (Invitrogen, Inc.; 1:500 dilution in Tris-HCl, pH 8.0, 1 mM EDTA), followed by incubation for 10 min at 25° C., followed by measurement of fluorescence intensity [excitation wavelength=485 nm and emission wavelength=535 nm; QuantaMaster QM1 spectrofluorometer (PTI, Inc.)]. IC50 is defined as the concentration of inhibitor resulting in 50% inhibition of RNA polymerase activity.
Fluorescence-detected RNA polymerase assays with S. aureus RNA polymerase were performed as in Example 2.1, using reaction mixtures containing (20 μl): 0-100 nM test salt, 75 nM S. aureus RNA polymerase core enzyme, 300 nM S. aureus σ^A, 20 nM 384 bp DNA fragment containing the bacteriophage T4 N25 promoter, 100 μM ATP, 100 μM GTP, 100 μM UTP, 100 μM CTP, 40 mM Tris-HCl, pH 8.0, 80 mM NaCl, 5 mM MgCl2, 2.5 mM DTT, and 12.7% glycerol. IC50 is defined as the concentration of inhibitor resulting in 50% inhibition of RNA polymerase activity.

[2] = tested on: Staphylococcus aureus ATCC 12600; experiment: Inhibition of growth of Staphylococcus aureus (spiral gradient endpoint MIC assay); type: cell-based; details: ATCC12600, Mueller-Hinton II cation-adjusted agar, 16 h at 37° C., read-out: in vitro antibacterial activity S. aureus ATCC12600 MIC
Description: Minimum inhibitory concentrations (MICs for Staphylococcus aureus ATCC 12600 were quantified using spiral gradient endpoint assays, essentially as described [Wallace, A. and Corkill, J. (1989) Application of the spiral plating method to study antimicrobial action. J. Microbiol. Meths. 10, 303-310; Paton, J., Holt, A., and Bywater, M. (1990) Measurement of MICs of antibacterial agents by spiral gradient endpoint compared with conventional dilution methods. Int. I Exp. Clin. Chemother. 3, 31-38; Schalkowsky S. (1994) Measures of susceptibility from a spiral gradient of drug concentrations. Adv. Exp. Med. Biol. 349, 107-120]. Assays employed exponential-gradient plates containing 150 mm×4 mm Mueller-Hinton II cation-adjusted agar and 0.4-100 μg/ml of test salt. Plates were prepared using an Autoplate 4000 spiral plater (Spiral Biotech, Inc.). Saturated overnight cultures were swabbed radially onto plates, and plates were incubated for 16 h at 37° C. For each culture, the streak length was measured using a clear plastic template (Spiral Biotech, Inc.), the test-salt concentration at the streak endpoint was calculated using the program SGE (Spiral Biotech, Inc.), and the MIC was defined as the calculated test-salt concentration at the streak endpoint.

[3] = target: E. coli RNA polymerase σ70 holoenzyme (Escherichia coli (strain K12), UniProt P0A8T7+P0A8V2); experiment: Fluorescence-detected assay of inhibition of Escherichia coli RNA polymerase; type: biochemical; details: T4 N25 promoter DNA, RiboGreen fluorescence, read-out: RNAP-inhibitory activity E. coli RNAP IC50
Procedure: as §1

Compound	IC50 [1] [µM]	MIC [2] [µg/mL]	IC50 [3] [µM]
O=C(NCc1ccc(Cl)cc1)c1c(O)cc(O)cc1O [Compound 0MTK107, N-(4-chlorobenzyl)-2,4,6-trihydroxybenzamide]	2	> 40	0.4
O=C(NCCc1ccc(Cl)cc1)c1c(O)cc(O)cc1O [Compound 0MTK127, N-(4-chlorophenethyl)-2,4,6-trihydroxybenzamide]	1.5	20 (≈ 65 µM)	0.37
CN(CCc1ccc(Cl)cc1)C(=O)c1c(O)cc(O)cc1O [Compound 0MTK128, N-(4-chlorophenethyl)-2,4,6-trihydroxy-N-methylbenzamide]	> 100	> 20	0.97
CC(C)(CNC(=O)c1c(O)cc(O)cc1O)c1ccc(Cl)cc1 [Compound 0MTK146, N-(2-(4-chlorophenyl)-2-methylpropyl)-2,4,6-trihydroxybenzamide]	2.7	22 (≈ 65.5 µM)	0.69
O=C(NCc1ccc(Oc2ccccc2)cc1)c1c(O)cc(O)cc1O [Compound 0MTK149, 2,4,6-trihydroxy-N-(4-phenoxybenzyl)benzamide]	1.5	19 (≈ 54.1 µM)	0.14
O=C(NCc1ccc(Oc2ccc(F)cc2)cc1)c1c(O)cc(O)cc1O [Compound 0MTK154, N-(4-(4-fluorophenoxy)benzyl)-2,4,6-trihydroxybenzamide]	3.5	15 (≈ 40.6 µM)	0.42
O=C(NCc1ccc(Oc2ccc(F)cc2)cc1C(F)(F)F)c1c(O)cc(O)cc1O [Compound 0MTK155, N-(4-(4-fluorophenoxy)-2-(trifluoromethyl)benzyl)-2,4,6-trihydroxybenzamide]	8.1	8.1 (≈ 18.5 µM)	0.79
O=C(NCCc1ccc(Oc2ccc(F)cc2)cc1)c1c(O)cc(O)cc1O [Compound 0MTK156, N-(4-(4-fluorophenoxy)phenethyl)-2,4,6-trihydroxybenzamide]	5.5	8.3 (≈ 21.6 µM)	0.82
O=C(NCc1ccc(Oc2ccccc2)cc1C(F)(F)F)c1c(O)cc(O)cc1O [Compound 0MTK158, 2,4,6-trihydroxy-N-(4-phenoxy-2-(trifluoromethyl)benzyl)benzamide]	1.8	5.4 (≈ 12.9 µM)	0.22
O=C(NCc1ccc(Oc2ccc(F)cc2)c(Cl)c1)c1c(O)cc(O)cc1O [Compound 0MTK174, N-(3-chloro-4-(4-fluorophenoxy)benzyl)-2,4,6-trihydroxybenzamide]	14	8.6 (≈ 21.3 µM)	0.41
O=C(NCc1ccc(Oc2ccc(F)cc2)c(F)c1)c1c(O)cc(O)cc1O [Compound 0MTK175, N-(3-fluoro-4-(4-fluorophenoxy)benzyl)-2,4,6-trihydroxybenzamide]	7	8.6 (≈ 22.2 µM)	0.45
Cc1cc(Oc2ccc(F)cc2)ccc1CNC(=O)c1c(O)cc(O)cc1O [Compound 0MTK176, N-(4-(4-fluorophenoxy)-2-methylbenzyl)-2,4,6-trihydroxybenzamide]	12	5.3 (≈ 13.8 µM)	0.39
COc1cc(Oc2ccc(F)cc2)ccc1CNC(=O)c1c(O)cc(O)cc1O [Compound 0MTK178, N-(4-(4-fluorophenoxy)-2-methoxybenzyl)-2,4,6-trihydroxybenzamide]	18	7.8 (≈ 19.5 µM)	0.61
O=C(NCCc1ccc(Oc2cc(Cl)cc(Cl)c2)cc1)c1c(O)cc(O)cc1O [Compound 0MTK180, N-(4-(3,5-dichlorophenoxy)phenethyl)-2,4,6-trihydroxybenzamide]	6.6	1.8 (≈ 4.14 µM)	0.83
O=C(NCc1ccc(Oc2ccc(F)cc2)cc1Cl)c1c(O)cc(O)cc1O [Compound 0MTK181, N-(2-chloro-4-(4-fluorophenoxy)benzyl)-2,4,6-trihydroxybenzamide]	> 60	6.9 (≈ 17.1 µM)	1.4
O=C(NCCc1ccc(Oc2ccc(Cl)cc2)cc1)c1c(O)cc(O)cc1O [Compound 0MTK183, N-(4-(4-chlorophenoxy)phenethyl)-2,4,6-trihydroxybenzamide]	14	6.1 (≈ 15.3 µM)	1.7
O=C(NCCCc1ccc(Cl)cc1)c1c(O)cc(O)cc1O [Compound 0MTK204, N-(3-(4-chlorophenyl)propyl)-2,4,6-trihydroxybenzamide]	8	27 (≈ 83.9 µM)	7
O=C(NCCc1ccc(C(F)(F)F)cc1)c1c(O)cc(O)cc1O [Compound 0MTK207, 2,4,6-trihydroxy-N-(4-(trifluoromethyl)phenethyl)benzamide]	13	19 (≈ 55.7 µM)	7.4
COc1ccc(Oc2ccc(CCNC(=O)c3c(O)cc(O)cc3O)cc2)cc1 [Compound 0MTK260, 2,4,6-trihydroxy-N-(4-(4-methoxyphenoxy)phenethyl)benzamide]	6.2	–	0.78
O=C(NCCc1ccc(Oc2ccc(N3CCOCC3)cc2)cc1)c1c(O)cc(O)cc1O [Compound 0MTK261, 2,4,6-trihydroxy-N-(4-(4-morpholinophenoxy)phenethyl)benzamide]	7.5	–	1.5
O=C(NCCc1ccc(Oc2cncnc2)cc1)c1c(O)cc(O)cc1O [Compound 0MTK262, 2,4,6-trihydroxy-N-(4-(pyrimidin-5-yloxy)phenethyl)benzamide]	7.4	–	1.5
O=C(NCCc1ccc(Oc2cccc(N3CCOCC3)c2)cc1)c1c(O)cc(O)cc1O [Compound 0MTK263, 2,4,6-trihydroxy-N-(4-(3-morpholinophenoxy)phenethyl)benzamide]	7.1	–	1.3
O=C(NCCc1ccc(Oc2cccnc2)cc1)c1c(O)cc(O)cc1O [Compound 0MTK264, 2,4,6-trihydroxy-N-(4-(pyridin-3-yloxy)phenethyl)benzamide]	3.8	–	0.82
O=C(NCCc1ccc(Oc2ccncc2)cc1)c1c(O)cc(O)cc1O [Compound 0MTK265, 2,4,6-trihydroxy-N-(4-(pyridin-4-yloxy)phenethyl)benzamide]	6.4	–	1.3
O=C(NCCc1ccc(Oc2ccc(-c3ccncc3)cc2)cc1)c1c(O)cc(O)cc1O [Compound 0MTK266, 2,4,6-trihydroxy-N-(4-(4-(pyridin-4-yl)phenoxy)phenethyl)benzamide]	5.1	–	1.2
O=C(NCCc1ccc(Oc2ccc(-c3cccnc3)cc2)cc1)c1c(O)cc(O)cc1O [Compound 0MTK267, 2,4,6-trihydroxy-N-(4-(4-(pyridin-3-yl)phenoxy)phenethyl)benzamide]	1.7	–	0.3
O=C(NC1CC1)c1cccc(Oc2ccc(CCNC(=O)c3c(O)cc(O)cc3O)cc2)c1 [Compound 0MTK268, N-(4-(3-(cyclopropylcarbamoyl)phenoxy)phenethyl)-2,4,6-trihydroxybenzamide]	2.9	–	0.8
O=C(NCCc1ccc(Oc2cccc(-c3ccncc3)c2)cc1)c1c(O)cc(O)cc1O [Compound 0MTK269, 2,4,6-trihydroxy-N-(4-(3-(pyridin-4-yl)phenoxy)phenethyl)benzamide]	3	–	0.7

Reference: patent publication US11572337B2, “Antibacterial agents: arylalkylcarboxamido phloroglucinols” (Rutgers, The State University of New Jersey, priority 2018, dated 2023)
